According to US11173192B2 (priority 2016, dated 2021):

What was measured:
PR8 = type: cell-based, PR8 influenza A virus
[1] = system: PR8-infected RAW264.7 cells; type: cell-based; settings: RAW264.7 cells stably overexpressing EPRS vs empty vector

Substance: EPRS: glutamyl-prolyl-tRNA synthetase protein, 1512 aa, SEQ ID NO: 63; expressed from plasmid or purified
- viral replication following infection with PR8 (PR8): significantly less viral replication
- IFN-β production following infection with PR8 [1]: more production of IFN-β and IL-6
- IL-6 production following infection with PR8 [1]: more production of IFN-β and IL-6
